Experimental data from patent US12582641B2, “Sulfur-containing compound based on glutarimide skeleton and application thereof” (SHANGHAITECH UNIVERSITY, priority 2019, dated 2026).

System: MM.1S cells
Experiment: Proliferation inhibition (IC50) in MM.1S cells, cell viability assay
Details: Homo sapiens, MM1.S, 72 h, read-out: IC50 (nM), proliferation inhibitory activity of MM.1S cells (half inhibitory concentration)

Row | SMILES | IC50 [nM]
1 | O=C1CCC(N2C(=O)c3cccc(SCCc4ccc(CN5CCCCC5)cc4)c3C2=O)C(=O)N1 (stereo not drawn) [SIAIS1224163, 2-(2,6-dioxopiperidin-3-yl)-4-((4-(piperidin-1-ylmethyl)phenethyl)thio)isoindoline-1,3-dione] | 7.41
2 | O=C1CCC(N2C(=O)c3cccc(SCCc4ccc(CNC5CCCCC5)cc4)c3C2=O)C(=O)N1 (stereo not drawn) [SIAIS1227019, 4-((4-((cyclohexylamino)methyl)phenethyl)thio)-2-(2,6-dioxopiperidin-3-yl)isoindoline-1,3-dione] | 34.3
3 | O=C1CCC(N2Cc3c(SCCCc4ccc(CNC56CC7CC(CC(C7)C5)C6)cc4)cccc3C2=O)C(=O)N1 (stereo not drawn) [SIAIS1227037, 3-(4-((3-(4-(((adamantan-1-yl)amino)methyl)phenyl)propyl)thio)-1-oxoisoindolin-2-yl)piperidine-2,6-dione] | 0.04 ± 0.02
4 | O=C1CCC(N2C(=O)c3cccc(SCCCc4ccc(CNC56CC7CC(CC(C7)C5)C6)cc4)c3C2=O)C(=O)N1 (stereo not drawn) [SIAIS1227041, 4-((3-(4-(((adamantan-1-yl)amino)methyl)phenyl)propyl)thio)-2-(2,6-dioxopiperidin-3-yl)isoindoline-1,3-dione] | 0.095
5 | O=C1CCC(N2Cc3c(SCc4ccc(CCCNC56CC7CC(CC(C7)C5)C6)cc4)cccc3C2=O)C(=O)N1 (stereo not drawn) [SIAIS1227047, 3-(4-((4-(3-((adamantan-1-yl)amino)propyl)benzyl)thio)-1-oxoisoindolin-2-yl)piperidine-2,6-dione] | 0.028 ± 0.003
6 | CCN(CC)Cc1ccc(CSc2cccc3c2CN(C2CCC(=O)NC2=O)C3=O)cc1 (stereo not drawn) [SIAIS1227055, 3-(4-((4-((diethylamino)methyl)benzyl)thio)-1-oxoisoindolin-2-yl)piperidine-2,6-dione] | 0.285
7 | CC(C)N(Cc1ccc(CSc2cccc3c2CN(C2CCC(=O)NC2=O)C3=O)cc1)C(C)C (stereo not drawn) [SIAIS1227057, 3-(4-((4-((diisopropylamino)methyl)benzyl)thio)-1-oxoisoindolin-2-yl)piperidine-2,6-dione] | 0.252
8 | O=C1CCC(N2Cc3c(SCc4ccc(CN(C5CCCCC5)C5CCCCC5)cc4)cccc3C2=O)C(=O)N1 (stereo not drawn) [SIAIS1227059, 3-(4-((4-((dicyclohexylamino)methyl)benzyl)thio)-1-oxoisoindolin-2-yl)piperidine-2,6-dione] | 0.022
9 | O=C1CCC(N2Cc3c(SCc4ccc(CNC56CC7CC(CC(O)(C7)C5)C6)cc4)cccc3C2=O)C(=O)N1 (stereo not drawn) [SIAIS1227061, 3-(4-((4-(((3-hydroxyadamantan-1-yl)amino)methyl)benzyl)thio)-1-oxoisoindolin-2-yl)piperidine-2,6-dione] | 0.721
10 | O=C1CCC(N2C(=O)c3cccc(SCCCc4ccc(CNC5CCCCC5)cc4)c3C2=O)C(=O)N1 (stereo not drawn) [SIAIS1227069, 4-((3-(4-((cyclohexylamino)methyl)phenyl)propyl)thio)-2-(2,6-dioxopiperidin-3-yl)isoindoline-1,3-dione] | 1.12
11 | O=C1CCC(N2C(=O)c3cccc(SCc4ccc(CCCNC5CCCCC5)cc4)c3C2=O)C(=O)N1 (stereo not drawn) [SIAIS1227087, 4-((4-(3-(cyclohexylamino)propyl)benzyl)thio)-2-(2,6-dioxopiperidin-3-yl)isoindoline-1,3-dione] | 0.283
12 | O=C1CCC(N2C(=O)c3cccc(SCc4ccc(CCCN5CCOCC5)cc4)c3C2=O)C(=O)N1 (stereo not drawn) [SIAIS1227091, 2-(2,6-dioxopiperidin-3-yl)-4-((4-(3-morpholinopropyl)benzyl)thio) isoindoline-1,3-dione] | 2
13 | CC1(C)CCC(NCCc2ccc(CSc3cccc4c3CN(C3CCC(=O)NC3=O)C4=O)cc2)CC1 (stereo not drawn) [SIAIS1227103, 3-(4-((4-(2-((4,4-dimethylcyclohexyl)amino)ethyl)benzyl)thio)-1-oxoisoindolin-2-yl)piperidine-2,6-dione] | 0.02
14 | CC1(C)CCC(NCc2ccc(CSc3cccc4c3CN(C3CCC(=O)NC3=O)C4=O)cc2)CC1 (stereo not drawn) [SIAIS1227105, 3-(4-((4-(((4,4-dimethylcyclohexyl)amino)methyl)benzyl)thio)-1-oxoisoindolin-2-yl)piperidine-2,6-dione] | 0.05 ± 0.01
15 | CC(C)(C)NCc1ccc(CSc2cccc3c2CN(C2CCC(=O)NC2=O)C3=O)cc1 (stereo not drawn) [SIAIS1227107, 3-(4-((4-((tert-butylamino)methyl)benzyl)thio)-1-oxoisoindolin-2-yl)piperidine-2,6-dione] | 0.27 ± 0.07
16 | CC1CC(C)CN(Cc2ccc(CSc3cccc4c3CN(C3CCC(=O)NC3=O)C4=O)cc2)C1 (stereo not drawn) [SIAIS1227117, 3-(4-((4-((3,5-dimethylpiperidin-1-yl)methyl)benzyl)thio)-1-oxoisoindolin-2-yl)piperidine-2,6-dione] | 0.2 ± 0.08

The remaining lines, values ahead:

Row | IC50 [nM] | SMILES
17 | 0.021 ± 0.004 | O=C1CCC(N2Cc3c(SCc4ccc(CCNC5CCCCC5)cc4)cccc3C2=O)C(=O)N1 (stereo not drawn) [SIAIS1224155, 3-(4-((4-(2-(cyclohexylamino)ethyl)benzyl)thio)-1-oxoisoindolin-2-yl)piperidine-2,6-dione]
18 | 3.62 | O=C1CCC(N2Cc3c(SCCc4ccc(CN5CCCCC5)cc4)cccc3C2=O)C(=O)N1 (stereo not drawn) [SIAIS1224161, 3-(1-oxo-4-((4-(piperidin-1-ylmethyl)phenethyl)thio)isoindolin-2-yl)piperidine-2,6-dione]
19 | 0.67 ± 0.27 | O=C1CCC(N2Cc3c(SCCc4ccc(CNC5CCCCC5)cc4)cccc3C2=O)C(=O)N1 (stereo not drawn) [SIAIS1227007, 3-(4-((4-((cyclohexylamino)methyl)phenethyl)thio)-1-oxoisoindolin-2-yl)piperidine-2,6-dione]
20 | 0.14 ± 0.04 | O=C1CCC(N2Cc3c(SCCCc4ccc(CN5CCCCC5)cc4)cccc3C2=O)C(=O)N1 (stereo not drawn) [SIAIS1227035, 3-(1-oxo-4-((3-(4-(piperidin-1-ylmethyl)phenyl)propyl)thio)isoindolin-2-yl)piperidine-2,6-dione]
21 | 2.49 | O=C1CCC(N2C(=O)c3cccc(SCCCc4ccc(CN5CCCCC5)cc4)c3C2=O)C(=O)N1 (stereo not drawn) [SIAIS1227039, 2-(2,6-dioxopiperidin-3-yl)-4-((3-(4-(piperidin-1-ylmethyl)phenyl)propyl)thio)isoindoline-1,3-dione]
22 | 0.024 ± 0.006 | O=C1CCC(N2Cc3c(SCc4ccc(CCCN5CCCCC5)cc4)cccc3C2=O)C(=O)N1 (stereo not drawn) [SIAIS1227043, 3-(1-oxo-4-((4-(3-(piperidin-1-yl)propyl)benzyl)thio)isoindolin-2-yl)piperidine-2,6-dione]
23 | 0.06 ± 0.01 | O=C1CCC(N2Cc3c(SCc4ccc(CCCNC5CCCCC5)cc4)cccc3C2=O)C(=O)N1 (stereo not drawn) [SIAIS1227045, 3-(4-((4-(3-(cyclohexylamino)propyl)benzyl)thio)-1-oxoisoindolin-2-yl)piperidine-2,6-dione]
24 | 0.1 ± 0.05 | O=C1CCC(N2Cc3c(SCc4ccc(CCN5CCOCC5)cc4)cccc3C2=O)C(=O)N1 (stereo not drawn) [SIAIS1227049, 3-(4-((4-(2-morpholinoethyl)benzyl)thio)-1-oxoisoindolin-2-yl)piperidine-2,6-dione]
25 | 0.004 ± 0.002 | O=C1CCC(N2Cc3c(SCc4ccc(CCN5CCSCC5)cc4)cccc3C2=O)C(=O)N1 (stereo not drawn) [SIAIS1227051, 3-(1-oxo-4-((4-(2-thiomorpholinoethyl)benzyl)thio)isoindolin-2-yl)piperidine-2,6-dione]
26 | 0.079 | O=C1CCC(N2Cc3c(SCc4ccc(CCCN5CCOCC5)cc4)cccc3C2=O)C(=O)N1 (stereo not drawn) [SIAIS1227053, 3-(4-((4-(3-morpholinopropyl)benzyl)thio)-1-oxoisoindolin-2-yl)piperidine-2,6-dione]
27 | 0.11 ± 0.02 | O=C1CCC(N2Cc3c(SCCCc4ccc(CNC5CCCCC5)cc4)cccc3C2=O)C(=O)N1 (stereo not drawn) [SIAIS1227067, 3-(4-((3-(4-((cyclohexylamino)methyl)phenyl)propyl)thio)-1-oxoisoindolin-2-yl)piperidine-2,6-dione]
28 | 0.499 | O=C1CCC(N2Cc3c(SCCCc4ccc(CN5CCOCC5)cc4)cccc3C2=O)C(=O)N1 (stereo not drawn) [SIAIS1227075, 3-(4-((3-(4-(morpholinomethyl)phenyl)propyl)thio)-1-oxoisoindolin-2-yl)piperidine-2,6-dione]
29 | 0.37 | O=C1CCC(N2C(=O)c3cccc(SCc4ccc(CCCN5CCCCC5)cc4)c3C2=O)C(=O)N1 (stereo not drawn) [SIAIS1227085, 2-(2,6-dioxopiperidin-3-yl)-4-((4-(3-(piperidin-1-yl)propyl)benzyl)thio)isoindoline-1,3-dione]
30 | 0.163 | CCN(CC)CCc1ccc(CSc2cccc3c2CN(C2CCC(=O)NC2=O)C3=O)cc1 (stereo not drawn) [SIAIS1227097, 3-(4-((4-(2-(diethylamino)ethyl)benzyl)thio)-1-oxoisoindolin-2-yl)piperidine-2,6-dione]
31 | 0.311 | CN1CCN(CCc2ccc(CSc3cccc4c3CN(C3CCC(=O)NC3=O)C4=O)cc2)CC1 (stereo not drawn) [SIAIS1227099, 3-(4-((4-(2-(4-methylpiperazin-1-yl)ethyl)benzyl)thio)-1-oxoisoindolin-2-yl)piperidine-2,6-dione]
32 | 0.03 ± 0.004 | O=C1CCC(N2Cc3c(SCc4ccc(CN5CCCCCCC5)cc4)cccc3C2=O)C(=O)N1 (stereo not drawn) [SIAIS1227109, 3-(4-((4-(azocan-1-ylmethyl)benzyl)thio)-1-oxoisoindolin-2-yl)piperidine-2,6-dione]
33 | 0.03 ± 0.01 | CC1(C)CCN(Cc2ccc(CSc3cccc4c3CN(C3CCC(=O)NC3=O)C4=O)cc2)CC1 (stereo not drawn) [SIAIS1227113, 3-(4-((4-((4,4-dimethylpiperidin-1-yl)methyl)benzyl)thio)-1-oxoisoindolin-2-yl)piperidine-2,6-dione]
34 | 0.04 ± 0.01 | O=C1CCC(N2Cc3c(SCc4ccc(CN5CCC6(CC5)CC6)cc4)cccc3C2=O)C(=O)N1 (stereo not drawn) [SIAIS1227115, 3-(4-((4-((6-azaspiro[2.5]octan-6-yl)methyl)benzyl)thio)-1-oxoisoindolin-2-yl)piperidine-2,6-dione]
35 | 0.2 | O=C1CCC(N2Cc3c(SCc4ccc(CN5CCC6(CCCCC6)CC5)cc4)cccc3C2=O)C(=O)N1 (stereo not drawn) [SIAIS1227119, 3-(4-((4-((3-azaspiro[5.5]undecan-3-yl)methyl)benzyl)thio)-1-oxoisoindolin-2-yl)piperidine-2,6-dione]
36 | 0.89 ± 0.22 | O=C1CCC(N2Cc3c(SCc4cccc(CN5CCCCC5)c4)cccc3C2=O)C(=O)N1 (stereo not drawn) [SIAIS1227131, 3-(1-oxo-4-((3-(piperidin-1-ylmethyl)benzyl)thio)isoindolin-2-yl)piperidine-2,6-dione]
